Where a name gives a salt, the structure may show the parent alone. Marks after values point to notes of the source that are not given here.
How the values were obtained:
Type in all cases: in vivo, rat
[1] = system: kainate-induced epilepsy; experiment: Kainate-induced convulsions (epilepsy); details: for Latency (s) to the first tonic-clonic seizure / Seizures (total number) / Mortality (%): kainic acid 10 μg/2 μl i.c.v.; for Latency (s) to the first tonic-clonic seizure / Seizures (total number): 30-min observation, mean ± S.E.M.; for Mortality (%): checked 2 h after convulsive agent
Procedure: (§1) Male rats of the Sprague-Dawley strain (purchased from Charles River, Italy) weighing 280±20 g were used throughout all experiments. The animals were housed two-three to a cage under a constant light-dark cycle (lights on between 8.00 and 20.00) at 21° C. Commercial food and tap water were available ad libitum. All animals were used only once in the behavioral experiments.
Another group of animals were implanted under ether anaesthesia with a permanent plastic cannula in the right lateral ventricle (foramen interventriculare, Konig and Klippel A 6360) with another cannula into the right jugular vein. These animals were sacrificed at the end of behavioral procedure and the brains were utilized for biochemical analysis. Data were taken from animals showing no abnormalities at the postmortem examination. All experiments were carried out according to the European Community Council Directive 86/609/ECC and efforts were made to minimize animal suffering and to reduce the number of animals used.
Ropinirole (ropinirole hydrochloride, SmithKline Beecham, Italy) and dihydroergocryptine (DHECP) α-dihydroergocryptine methanesulfonate, Monsanto, Italy) were dissolved in saline and injected subcutaneously (s.c.) at the dose of 0.5 and 1 mg/kg/day for 7 days. In the experiments with kainate-induced convulsions, […], and again at the same time of the intracerebroventricular (i.c.v) injection on kainic acid; Control animals received an injection of saline alone with the same procedure.
Kainic acid (Sigma, USA) was dissolved in saline and injected i.c.v. at the dose of 10 μg/2 μi.
Over a 30-min observation, the following items were recorded per each animal receiving an i.c.v. injection of kainic acid: latency in s to the first tonic-clonic seizure; total number of seizures, percent rate of mortality (checked 2 h after the administration of the convulsive agent).
Behavioral scoring of kainate-induced convulsions was started immediately after i.c.v. injection of the drug and proceeded for 30 min. Ropinirole, DHECP or saline were injected twice, 30 min prior and, again, at the same time of the i.c.v. administration of kainic acid.

[2] = system: animals with hypobaric hypoxia-induced amnesia; experiment: Step-through passive avoidance, hypobaric hypoxia-induced amnesia; details: for Latency: hypobaric hypoxia, median latency to re-enter dark box, max 300 s
Procedure: as §1
(§2) Ropinirole (ropinirole hydrochloride, SmithKline Beecham, Italy) and dihydroergocryptine (DHECP) α-dihydroergocryptine methanesulfonate, Monsanto, Italy) were dissolved in saline and injected subcutaneously (s.c.) at the dose of 0.5 and 1 mg/kg/day for 7 days. In the experiments with kainate-induced convulsions, ropinirole or DHECP were injected intravenously (i.v.) 30 min prior, and again at the same time of the intracerebroventricular (i.c.v) injection on kainic acid; Control animals received an injection of saline alone with the same procedure.
Passive avoidance behaviour was studied in a step-through type of passive avoidance situation (Ader et al., Psycon Sci, 26, 125-128 (1972)). Briefly the rats were adapted to the apparatus consisting of a large dark compartment equipped with a grid floor and a mesh-covered elevated runway attached to the front centre of the dark chamber. Adaptation training was followed by a single trial in which the rats were placed on the elevated platform and allowed to enter the dark box. Three such trials were given on the next day with an intertrial interval of 5 min after the trial. The rats received a single 2-s unavoidable scrambled foot-shock (0.20 mA) immediately after entering the dark compartment. Retention of the response was tested 24 h after the learning trial. The rats were placed on the elevated runway and the latency to re-enter the shock compartment was recorded up to a maximum of 300 s.
(§3) In the first experiment, the effects of ropinirole or DHECP were studied on amnesia induced by hypobaric hypoxia in rats. After a 7-day pretreatment with ropinirole, DHECP or saline, a group of animals was subjected to acute hypobaric hypoxia by means of a hypobaric chamber (Chantiers et Ateliers de Bretagne, France) causing depression to 300 mmHg (Boismare et al., Gerentology, 24, 6-13 (1978)). After 3 min in the chamber, the animals were removed and admitted for behavioral testing. Intact control rats were also introduced into the chamber but not subjected to hypobaric hypoxia.

[3] = system: animals with hypobaric hypoxia-induced amnesia; experiment: Shuttle-box active avoidance acquisition, hypobaric hypoxia-induced amnesia; details: for Learners / CARs: hypobaric hypoxia; for CARs: mean ± S.E.M.
Procedure: as §1, §2
Shuttle-box active avoidance acquisition was studied in a single session test as described in Bohus and De Wied, Endogenous Peptides and Learning and Memory Processes. Academic Press, New York, pp59-775, (1981). Briefly, the rats were trained to avoid the unconditioned stimulus (US) of a scrambled electrical foot-shock (0.20 mA) delivered through the grid floor. The conditioned stimulus (CS) was a buzzer presented for 3 s prior to the US. If no escape occurred within 20 s of CS/US presentation, the shock was terminated. A maximum of 30 conditioning trials were given with a variable intertrial interval averaging 60 s. The learning criterion was five consecutive conditioned avoidance responses (CARs). For those animals that reached the criterion in less than 30 trials, the remaining trials until 30 were considered as CARs. Indexes of avoidance behaviour were the total number of CARs and the percent number of learners per group.
as §3

[4] = system: animals with hypobaric hypoxia-induced amnesia; experiment: Open field spontaneous motor activity, hypobaric hypoxia; details: vs intact controls and saline-treated hypoxic animals
Procedure: as §1, §2
Spontaneous motor activity was scored in a circular open field arena as described by Weijnen and Slangen, Pituitary, Adrenal and the Brain, pp221-235 (1982). Animals were put inside a circular lit-up arena, with the bottom divided into 27 areas of equal size.
as §3

[5] = kainate-induced seizures, summary of Table 3
[6] = hypobaric hypoxia-induced amnesia, summary of Table 1

CCCN(CCC)CCc1cccc2c1CC(=O)N2 [ROP, 4-[2-(di-n-propylamino)ethyl]-1,3-dihydro-2H-indolin-2-one hydrochloride]
latency to the first tonic-clonic seizure (effect of treatment, in words) [1, 5]: did not modify | percent mortality rate (effect of treatment, in words) [1, 5]: significant decrease | total number of kainate-induced seizures (effect of treatment, in words) [1, 5]: did not modify | Latency (s) to the first tonic-clonic seizure ([1]; 0.5 mg/kg injected s.c. twice (30 min prior and at kainic acid)): 69.4 ± 8.9 s | Seizures (total number) ([1]; 0.5 mg/kg injected s.c. twice): 7.1 ± 0.9 | Mortality (%) ([1]; 0.5 mg/kg injected s.c. twice): 20^a % | Latency (s) to the first tonic-clonic seizure ([1]; 1 mg/kg injected s.c. twice (30 min prior and at kainic acid)): 65.4 ± 6.9 s | Seizures (total number) ([1]; 1 mg/kg injected s.c. twice): 6.9 ± 0.9 | Mortality (%) ([1]; 1 mg/kg injected s.c. twice): 10^a % | latency to re-enter the dark box (effect of treatment, in words) [2, 6]: increase | Latency ([2]; 0.5 mg/kg/day s.c. for 7 days): 47^e,f | Latency ([2]; 1 mg/kg/day s.c. for 7 days): 65^f | number of CARs and percent number of learners in the shuttle-box (effect of treatment, in words) [3, 6]: increase | Learners ([3]; 0.5 mg/kg/day s.c. for 7 days): 60^d percent | CARs ([3]; 0.5 mg/kg/day s.c. for 7 days): 16.8 ± 1.3^b | Learners ([3]; 1 mg/kg/day s.c. for 7 days): 70^d percent | CARs ([3]; 1 mg/kg/day s.c. for 7 days): 17.2 ± 1.5^b | ambulation and rearing (effect of treatment, in words) [4]: higher

Source: US20040242669A1, “Method of treating deficits associated with brain injury” (priority 2003, published 2004)
